The source of these data is US20260250320A1, “LIPIDATED PEPTIDE INHIBITORS OF INTERLEUKIN-23 RECEPTOR” (Janssen Pharmaceutica NV, priority 2023, published 2026).

The term IC50 denotes the concentration that inhibits the measured activity by half. A higher IC50 goes with a need for much substance.

*1 amine or outer side, *2 acyl side, *3 side chain or, on linkers, in order; H or OH if unused. Where a SMILES comes first, the peptide text is derived from it. Bridges are numbered along the chain shown (N, C = ends). Side-chain parts run from the residue outwards. [ ]: non-standard residue; d: D form. The star is where a group is joined. X36 = C[N+](C)(C)CCOCCOCCC(=O)C[C@H](CCCCCC(=O)COCCOCCNC(=O)COCCOCCNC(=O)CC[C@H](NC(=O)CCCCCCCCCCCCCCCCC(=O)O)C(=O)O)C(=O)*; X17 = O=C(O)CCCCCCCCCCCCCCCCCCC(=O)N[C@@H](CCC(=O)NCCOCCOCCOCCOCCOCCOCCOCCOCCOCCOCCOCCOCCOCC(=O)*)C(=O)O; X12 = O=C(O)CCCCCCCCCCCCCCCCC(=O)C[C@@H](CCC(=O)*)C(=O)O; Me3N+(CH2)2O(CH2)2O(CH2)2CO = C[N+](C)(C)CCOCCOCCC(=O)*; PEG12 = NCCOCCOCCOCCOCCOCCOCCOCCOCCOCCOCCOCCOCCC(=O)O; Trp(7-Me) = Cc1cccc2c(C[C@H](N)C(=O)O)c[nH]c12; C20 diacid = O=C(O)CCCCCCCCCCCCCCCCCCC(=O)*; CH2CH2OCH2CH2NMe3+ = C[N+](C)(C)CCOCC*; γGlu = O=C(O)[C@H](CCC(=O)[*:2])N[*:1]; 2Nal = N[C@@H](Cc1ccc2ccccc2c1)C(=O)O; 3Pal = N[C@@H](Cc1cccnc1)C(=O)O; Lys(Me) = CNCCCC[C@H](N)C(=O)O; Pen = CC(C)(S)[C@H](N)C(=O)O; Thp = NC1(C(=O)O)CCOCC1; X1 = C[N+](C)(C)CCCCC*; AEEA = NCCOCCOCC(=O)O; Sar = CNCC(=O)O

Assay [1] deals with IL-23-stimulated phosphorylated STAT3 in peripheral blood mononuclear cells (PBMCs). Kind of assay: PBMC pSTAT3 Assay. It is filed as cell-based. To be noted: PBMCs from healthy donors; 30 min preincubation with peptide; IL-23 5 ng/mL for 30 min; phospho-STAT3 by MSD. The method, boiled down:
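Healthy-donor PBMCs expanded 4 days on anti-CD3 with 100 ng/mL IL-1β, starved ~4 h in RPMI-0.1% BSA, preincubated 30 min with peptide, then stimulated 30 min at 37 °C with 5 ng/mL IL-23. Lysate pSTAT3 measured by MSD phospho-STAT panel; IC50 derived.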

The target in another assay is T1, IL-23R (Homo sapiens, UniProt Q5VWK5).
T1 construct: HEK293 cells containing IL-23R, IL-12Rβ1 and a firefly luciferase reporter gene driven by a STAT-inducible promoter (Promega); host or cells: HEK293
T1 sequence (Q5VWK5 24-629): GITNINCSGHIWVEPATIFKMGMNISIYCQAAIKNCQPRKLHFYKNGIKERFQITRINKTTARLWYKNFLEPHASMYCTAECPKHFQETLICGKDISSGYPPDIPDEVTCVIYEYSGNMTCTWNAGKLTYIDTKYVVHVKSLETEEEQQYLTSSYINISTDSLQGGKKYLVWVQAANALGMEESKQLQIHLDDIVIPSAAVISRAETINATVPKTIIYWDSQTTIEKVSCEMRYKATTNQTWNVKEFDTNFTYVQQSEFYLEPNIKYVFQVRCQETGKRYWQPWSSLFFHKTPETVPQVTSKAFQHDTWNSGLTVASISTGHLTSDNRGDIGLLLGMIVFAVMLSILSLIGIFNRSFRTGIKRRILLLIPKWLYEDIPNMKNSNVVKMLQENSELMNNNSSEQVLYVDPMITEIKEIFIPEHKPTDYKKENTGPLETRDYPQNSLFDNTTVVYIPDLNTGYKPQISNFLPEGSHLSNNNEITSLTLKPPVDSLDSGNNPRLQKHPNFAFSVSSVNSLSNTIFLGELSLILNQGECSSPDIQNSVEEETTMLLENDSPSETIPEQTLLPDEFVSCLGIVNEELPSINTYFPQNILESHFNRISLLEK
Kind of assay: IL23R Reporter Assay. It is filed as cell-based. To be noted: HEK293 cells containing IL-23R, IL-12Rβ1 and STAT-inducible firefly luciferase reporter; 10 ng/mL IL-23 (EC90); 5 h. The method, boiled down: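 HEK293 cells carrying IL-23R, IL-12Rβ1 and a STAT-driven firefly luciferase reporter (4000 cells/well) received compound, then 10 ng/mL IL-23 solution (EC90), and were incubated for 5 h at 37° C. BioGlo luminescence was normalised to IL-23 alone (0%) and 30 μM control inhibitor (100%). IC50 came from a 4-parameter Hill fit.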
Background: A reporter such as luciferase makes a cellular process visible.

In the case of `CC(=O)N(C)CCCC[C@@H]1NC(=O)[C@H](Cc2c[nH]c3c(C)cccc23)NC(=O)[C@H]([C@@H](C)O)NC(=O)[C@H](CCCCNC(=O)CCOCCOCCOCCOCCOCCOCCOCCOCCOCCOCCOCCOCCNC(=O)CC[C@H](CC(=O)CCCCCCCCCCCCCCCCC(=O)O)C(=O)O)NC(=O)[C@@H](NC(=O)CCOCCOCC[N+](C)(C)C)C(C)(C)SSC(C)(C)[C@@H](C(=O)N[C@@H](Cc2ccc(OCCCCC[N+](C)(C)C)cc2)C(=O)N[C@@H](Cc2ccc3ccccc3c2)C(=O)NC2(C(=O)N[C@@H](CCCCN(C)C(C)=O)C(=O)N[C@@H](CC(N)=O)C(=O)N[C@@H](Cc3cccnc3)C(=O)N(C)CC(=O)N(C)C)CCOCC2)NC1=O` [compound 125, cPEG3aCO-Pen(3)-K(PEG12gEC18OH)-T-7MeW-K(NMeAc)-Pen(3)-TMAPF-2Nal-THP-K(NMeAc)-N-3Pya-Sar-CON(Me)2] ({Me3N+(CH2)2O(CH2)2O(CH2)2CO}-[Pen]K([PEG12-X12])T[Trp(7-Me)][Lys(Me)](Ac)[Pen]Y(X1)[2Nal][Thp][Lys(Me)](Ac)N[3Pal][Sar]-NMe2; disulfide 1-6), the half-inhibitory concentration (IC50) in assay [1] is 0.5 to 5 nM; at IL-23R it was below 50 nM.
For `CC(=O)NCCCC[C@@H]1NC(=O)[C@H](Cc2c[nH]c3c(C)cccc23)NC(=O)[C@H]([C@@H](C)O)NC(=O)[C@H](CC(N)=O)NC(=O)[C@@H](NC(=O)CCOCCOCC[N+](C)(C)C)C(C)(C)SSC(C)(C)[C@@H](C(=O)N[C@@H](Cc2ccc(OCCCCC[N+](C)(C)C)cc2)C(=O)N[C@@H](Cc2ccc3ccccc3c2)C(=O)NC2(C(=O)N[C@@H](CCCCNC(=O)COCCOCCNC(=O)COCCOCCNC(=O)CC[C@H](NC(=O)CCCCCCCCCCCCCCCCCCC(=O)O)C(=O)O)C(=O)N[C@@H](N)C(=O)N[C@@H](Cc3ccccn3)C(=O)N(C)CC(N)=O)CCOCC2)NC1=O` [compound 126, cPEG3aCO-Pen(3)-N(N(Me)2)-T-7MeW-K(NMeAc)-Pen(3)-TMAPF-2Nal-THP-K(PEG2PEG2gEC20OH)-N-3Pya-Sar-CON(Me)2], in that order: below 0.5 nM and below 50 nM.
In the case of `C=C(N[C@@H](CC(N)=O)C(=O)N[C@@H](CC)C(C)N(C)CC(=O)N(C)C)[C@H](CCCCN(C)C(C)=O)NC(=O)C1(NC(=O)[C@H](Cc2ccc3ccccc3c2)NC(=O)[C@H](Cc2ccc(OCCCCC[N+](C)(C)C)cc2)NCC2NC(=O)[C@H](CCCCNC(=O)COCCOCCNC(=O)COCCOCCNC(=O)CC[C@H](NC(=O)CCCCCCCCCCCCCCCCCCC(=O)O)C(=O)O)NC(=O)[C@H](CC3=CCc4c(C)cccc43)NC(=O)[C@H]([C@@H](C)O)NC(=O)[C@H](CC(=O)N(C)C)NC(=O)[C@@H](NC(=O)CCOCCOCC[N+](C)(C)C)C(C)(C)SSC2(C)C)CCCCC1` (stereo partly drawn) [compound 127, cPEG3aCO-Pen(3)-N(N(Me)2)-T-7MeW-K(PEG2PEG2gEC20OH)-Pen(3)-TMAPF-2Nal-THP-K(NMeAc)-N-3Pya-Sar-CON(Me)2], the IC50 in assay [1] lay in the range of 0.5 to 5 nM; against IL-23R, 50 to 500 nM.
For `CC(=O)N(C)CCCC[C@@H]1NC(=O)[C@H](Cc2c[nH]c3c(C)cccc23)NC(=O)[C@H]([C@@H](C)O)NC(=O)[C@H](CCCCNC(=O)COCCOCCNC(=O)COCCOCCNC(=O)CC[C@H](NC(=O)CCCCCCCCCCCCCCCCCCC(=O)O)C(=O)O)NC(=O)[C@@H](NC(=O)CCOCCOCC[N+](C)(C)C)C(C)(C)SSC(C)(C)[C@@H](C(=O)N[C@@H](Cc2ccc(OCCCCC[N+](C)(C)C)cc2)C(=O)N[C@@H](Cc2ccc3ccccc3c2)C(=O)NC2(C(=O)N[C@@H](CCCCN(C)C(C)=O)C(=O)N[C@@H](CC(N)=O)C(=O)N[C@@H](Cc3cccnc3)C(=O)N(C)CC(=O)N(C)C)CCOCC2)NC1=O` [compound 128, cPEG3aCO-Pen(3)-K(PEG2PEG2gEC20OH)-T-7MeW-K(NMeAc)-Pen(3)-TMAPF-2Nal-THP-K(NMeAc)-N-3Pya-Sar-CON(Me)2] ({Me3N+(CH2)2O(CH2)2O(CH2)2CO}-[Pen]K([AEEA-AEEA-γGlu-C20 diacid])T[Trp(7-Me)][Lys(Me)](Ac)[Pen]Y(X1)[2Nal][Thp][Lys(Me)](Ac)N[3Pal][Sar]-NMe2; disulfide 1-6), in that order: 0.5 to 5 nM and 50 to 500 nM.
For the compound `CC(=O)N(C)CCCC[C@@H]1NC(=O)[C@H](Cc2c[nH]c3c(C)cccc23)NC(=O)[C@H]([C@@H](C)O)NC(=O)[C@H](CC(=O)N(C)C)NC(=O)[C@@H](NC(=O)[C@@H](CCCCNC(=O)COCCOCCNC(=O)COCCOCCNC(=O)CC[C@H](NC(=O)CCCCCCCCCCCCCCCCCCC(=O)O)C(=O)O)NC(=O)CCOCCOCC[N+](C)(C)C)C(C)(C)SSC(C)(C)[C@@H](C(=O)N[C@@H](Cc2ccc(OCCOCC[N+](C)(C)C)cc2)C(=O)N[C@@H](Cc2ccc3ccccc3c2)C(=O)NC2(C(=O)N[C@@H](CCCCN(C)C(C)=O)C(=O)N[C@@H](CC(N)=O)C(=O)N[C@@H](Cc3cccnc3)C(=O)N(C)CC(=O)N(C)C)CCOCC2)NC1=O` [compound 129, cPEG3aCO-K(PEG2PEG2gEC20OH)-Pen(3)-N(N(Me)2)-T-7MeW-K(NMeAc)-Pen(3)-TMAPF-2Nal-THP-K(NMeAc)-N-3Pya-Sar-CON(Me)2] ({Me3N+(CH2)2O(CH2)2O(CH2)2CO}-[dK]([AEEA-AEEA-γGlu-C20 diacid])[Pen]D(NMe2)T[Trp(7-Me)][Lys(Me)](Ac)[Pen]Y(CH2CH2OCH2CH2NMe3+)[2Nal][Thp][Lys(Me)](Ac)N[3Pal][Sar]-NMe2; disulfide 2-7), the concentration for half-maximal inhibition (IC50) is below 0.5 nM in assay [1] and below 50 nM on IL-23R.
Regarding `CC(=O)N(C)CCCC[C@@H]1NC(=O)[C@H](Cc2c[nH]c3c(C)cccc23)NC(=O)[C@H]([C@@H](C)O)NC(=O)[C@H](CC(=O)N(C)C)NC(=O)[C@@H](NC(=O)[C@@H](CCCCNC(=O)COCCOCCOCCOCCOCCOCCOCCOCCOCCOCCOCCOCCOCCNC(=O)CC[C@H](NC(=O)CCCCCCCCCCCCCCCCCCC(=O)O)C(=O)O)NC(=O)CCOCCOCC[N+](C)(C)C)C(C)(C)SSC(C)(C)[C@@H](C(=O)N[C@@H](Cc2ccc(OCCCCC[N+](C)(C)C)cc2)C(=O)N[C@@H](Cc2ccc3ccccc3c2)C(=O)NC2(C(=O)N[C@@H](CCCCN(C)C(C)=O)C(=O)N[C@@H](CC(N)=O)C(=O)N[C@@H](Cc3cccnc3)C(=O)N(C)CC(=O)N(C)C)CCOCC2)NC1=O` [compound 130, cPEG3aCO-k(PEG12gEC20OH)-Pen(3)-N(N(Me)2)-T-7MeW-K(NMeAc)-Pen(3)-TMAPF-2Nal-THP-K(NMeAc)-N-3Pya-Sar-CON(Me)2] ({Me3N+(CH2)2O(CH2)2O(CH2)2CO}-[dK](X17)[Pen]D(NMe2)T[Trp(7-Me)][Lys(Me)](Ac)[Pen]Y(X1)[2Nal][Thp][Lys(Me)](Ac)N[3Pal][Sar]-NMe2; disulfide 2-7), the IC50 in assay [1] was below 0.5 nM; against IL-23R, below 50 nM.
Take `CC(=O)N(C)CCCC[C@@H]1NC(=O)[C@H](Cc2c[nH]c3c(C)cccc23)NC(=O)[C@H]([C@@H](C)O)NC(=O)[C@H](CC(=O)N(C)C)NC(=O)[C@@H](NC(=O)[C@@H](CCCCCC(=O)COCCOCCNC(=O)COCCOCCNC(=O)CC[C@H](NC(=O)CCCCCCCCCCCCCCCCC(=O)O)C(=O)O)CC(=O)CCOCCOCC[N+](C)(C)C)C(C)(C)SSC(C)(C)[C@@H](C(=O)N[C@@H](Cc2ccc(OCCCCC[N+](C)(C)C)cc2)C(=O)N[C@@H](Cc2ccc3ccccc3c2)C(=O)NC2(C(=O)N[C@@H](CCCCN(C)C(C)=O)C(=O)N[C@@H](CC(N)=O)C(=O)N[C@@H](Cc3cccnc3)C(=O)N(C)CC(=O)N(C)C)CCOCC2)NC1=O` [compound 131, cPEG3aCO-k(PEG2PEG2gEC18OH)-Pen(3)-N(N(Me)2)-T-7MeW-K(NMeAc)-Pen(3)-TMAPF-2Nal-THP-K(NMeAc)-N-3Pya-Sar-CON(Me)2] (X36-[Pen]D(NMe2)T[Trp(7-Me)][Lys(Me)](Ac)[Pen]Y(X1)[2Nal][Thp][Lys(Me)](Ac)N[3Pal][Sar]-NMe2; disulfide 1-6): the IC50 in assay [1] was below 0.5 nM; on IL-23R, below 50 nM.
